Measurements reported in patent publication US9821000B2, “Compounds, compositions and corresponding uses for preventing and/or treating of dyslipidemia” (CENTRE NATIONAL DE LA RECHERCHE SCIENTIFIQUE (CNRS), priority 2013, dated 2017).
“Also recorded” adds a separate entry of the source.

Tested on: eIF2α
Experiment: Western blotting of eIF2α phosphorylation (UPR) in BRIN-BD11 cells
Assay type: cell-based, rat
Details: BRIN-BD11, palmitic acid 200 μM
Method: The BRIN-BD11 pancreatic β-cells were cultivated in controlled conditions or in the presence of an exogenous source of saturated fatty acids (palmitic acid 200 μM), as described by Dhayal& Morgan (2011) in order to generate conditions of lipotoxicity with or without addition of OAG or LPA.
FIG. 7B—The rates of phosphorylation of eIF2α were also analyzed under different conditions by Western blotting method, in the absence (Ø) or in the presence of OAG or LPA and normalized with quantities of total eIF2α. […] A.U.: arbitrary units.
The cells BRIN-BD11 are seeded at a density of 0.5×10^5 cells/mL in T25 flasks for 24 h. As indicated here above, the complete medium is then replaced by an equivalent devoid of FCS but containing the lipid reagents of interest. […] In a second stage, the membranes are stripped with the buffer Re-Blot Plus-Strong (Millipore) and then probed a second time with total anti-eIF2α antibodies (CellSignalling (New EnglandBiolabs) diluted to 1/1000th. The analysis by densitometry of the relative abundance of the phosphorylated and non-phosphorylated forms of the protein eIF2α is done with the Fluor-S Multi-imager analysis system combined with the software program Quantify One (Biorad UK Ltd).

Row | SMILES | UPR induction (rate of phosphorylation of eIF2α normalized to total eIF2α)
1 | CCCCCCCC/C=C\CCCCCCCC(=O)OC[C@@H](O)COP(=O)(O)O [LPA, 1-oleoyl-sn-glycerol-3-phosphate] | reducing the induction rate of UPR
2 | CCCCCCCC/C=C\CCCCCCCC(=O)OC[C@H](CO)OC(C)=O [OAG, 1-oleoyl-2-acetyl-sn-glycerol] | reducing the induction rate of UPR; also recorded: reduces the UPR
